Data set [1] can be described thus: Metabolic stability assay in mouse liver microsomes. Conditions: for half-life at 2 μM: read-out: t1/2, min MLM; for mouse microsomal stability: result in words. The data set is classed as in vitro ADME. The procedure:
(§1) 2d) Metabolic stability assay in liver microsomes. […]
(§2) The reactions are terminated by adding equivalent
(§3) volume of ice-cold CH3OH and vortexed.
(§4) temperature was ma i ntained at 40 °C.
(§5) (acetonitrile containing 0.1% formic acid). […]
(Liver microsomes are a subcellular fraction often used to study metabolism.)

Data set [2] can be described thus: Metabolic stability assay in human liver microsomes. The data set is classed as in vitro ADME. The conditions noted are these: for half-life at 2 μM: read-out: t1/2, min HLM. The protocol: as §1, §2, §3, §4, §5
The next data set has as its system various bromodomains. Kind of data set: BROMOscan bromodomain profiling on various bromodomains. The data set is classed as binding. Conditions: result in words. The procedure:
2a) Bromodomain proximity assay. The AlphaScreenTM assay was performed following previous […]
The plate was read on a Tecan Infinite […]
the protein thermal shift assay.
Orange dye at 5 × in a 10- µL reaction.
Lightcycler 480 real-time PCR instrument.
2c) NanoBRET target engagement intracellular BET bromodomain assay. The NanoLuc -BRDT-BD1 […]
(Promega, USA) to replace the corresponding BRD4 bromodomain sequences. The NanoBRET tracer […]
The cells were then preincubated with tested
2d) Metabolic stability assay in liver microsomes. Compounds 3–10, 15, 17 and 20–2 2 (2.0 μM) were incubated in the mouse or human liver microsomes (0.5 mg protein/mL) at 37 °C. The samples are collected […]
The reactions are terminated by adding equivalent volume of ice-cold CH3OH and vortexed. […]
as §4
(acetonitrile containing 0.1% formic acid).
2e) BROMOscan bromodomain profiling. BROMOscan bromodomain profiling was provided by […]
against a proprietary reference immobilized ligand.

Data set [3] has as its target BRDT-BD2.
Data set [4] deals with BRDT-BD1.
Data set [5] deals with BRD4-BD2.
In data set [6] the target is BRD4-BD1.
Data set [7] deals with BRD2-BD2.
Data set [8] concerns the target BRD3-BD2.
For data set [9], the target named is BRD4-BD2. This is another data set of the same source.
The target of data set [10] is BRDT-BD2. The source holds these as a separate data set.
For data set [11], the target named is T1, BRDT-BD1 (Homo sapiens, UniProt Q58F21).
T1 construct: NP_001717.3 amino acid 21− 137; made in house; host or cells: E. coli NiCo21 (DE3)
Kind of data set: AlphaScreen competition assay with biotinylated JQ1, BRDT-BD1. The data set is classed as binding. In general terms: Bead proximity is the source of the signal in Alpha formats.

Data set [12] concerns the target T2, BRD4-BD1 (Homo sapiens, UniProt O60885).
T2 construct: amino acid 44− 168; made in house; host or cells: E. coli NiCo21 (DE3)
The experiment in a line: AlphaScreen competition assay with biotinylated JQ1, BRD4-BD1. The data set is classed as binding.

The target in data set [13] is T3, BRD2-BD2 (Homo sapiens, UniProt P25440).
T3 construct: purchased Eurofins DiscoverX Corp
The experiment in a line: BROMOscan BromoKdELECT competition binding, BRD2-BD2. The conditions noted are these: BromoKdELECT dose-response; read-out: Binding Constants (Kd), nM BRD2-BD2.

In data set [14] the target is T4, BRD3-BD2 (Homo sapiens, UniProt Q15059).
T4 construct: purchased Eurofins DiscoverX Corp
Kind of data set: BROMOscan BromoKdELECT competition binding, BRD3-BD2. Conditions: BromoKdELECT dose-response; read-out: Binding Constants (Kd), nM BRD3-BD2.

The target of data set [15] is T5, BRD4-BD2 (Homo sapiens, UniProt O60885). The experiment in a line: BROMOscan BromoKdELECT competition binding, BRD4-BD2. The arrangement: purchased Eurofins DiscoverX Corp. The conditions noted are these: BromoKdELECT dose-response; read-out: Binding Constants (Kd), nM BRD4-BD2.
Data set [16] concerns the target T6, BRDT-BD2 (Homo sapiens, UniProt Q58F21). Kind of data set: BROMOscan BromoKdELECT competition binding, BRDT-BD2. The arrangement: purchased Eurofins DiscoverX Corp.
For data set [17], the target named is T5, BRD4-BD2. The experiment in a line: AlphaScreen competition assay with biotinylated JQ1, BRD4-BD2. Format: binding. The arrangement: BD2, NP_055114.1 amino acid 333− 460; made in house; host or cells: E. coli NiCo21 (DE3).
For data set [18], the target named is T6, BRDT-BD2. The experiment in a line: AlphaScreen competition assay with biotinylated JQ1, BRDT-BD2. Conditions: for BRDT-BD2 activity / affinity: result in words. Format: binding. More on the design: BRDT-BD2, NP_001717.3 amino acid 269− 380; made in house; host or cells: E. coli NiCo21 (DE3).
The test system of a further data set is BD2. More on the design: method as in PMID 32193360. The conditions noted are these: BD2-specific inhibitor; cited from earlier work.
In data set [19] the test system is BRDT-BD1. This is another data set of the same source.
Data set [20] relates to BRDT-BD2. This is another data set of the same source.
The test system of data set [21] is BRD4-BD1. The source holds these as a separate data set.
The test system of data set [22] is BRD4-BD2. The source holds these as a separate data set.
For data set [23] the following is noted: mice; cited from earlier work.
The mark [24] stands for this setting: mouse liver microsomes, 2.0 μM, 37 °C, data >60 min are an extrapolated estimate.
[25] abbreviates: human liver microsomes, 2.0 μM, 37 °C, data >60 min are an extrapolated estimate.
Where [26] appears, read: AlphaScreen, biotinylated JQ1 as ligand, NE: no effect at 20 µM.
Where [27] appears, read: AlphaScreen, biotinylated JQ1 as ligand.
Where [28] appears, read: ratio of AlphaScreen IC50 values.

Where “and” joins values, the source holds several entries; their conditions need not be identical. Identical values can stand only once. Like-named read-outs stand apart in the source and are kept apart here.

T3 sequence (P25440 344-453 limits assumed): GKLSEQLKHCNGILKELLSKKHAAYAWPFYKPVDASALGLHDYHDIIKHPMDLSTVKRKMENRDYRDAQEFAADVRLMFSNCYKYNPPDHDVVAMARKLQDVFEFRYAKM
T4 sequence (Q15059 306-415 limits assumed): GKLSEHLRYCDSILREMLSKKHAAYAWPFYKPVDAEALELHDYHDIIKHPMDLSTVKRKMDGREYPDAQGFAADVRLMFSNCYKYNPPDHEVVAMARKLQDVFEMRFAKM

As to `CNC(=O)c1ccc(C(=O)Nc2cc(NC(=O)c3ccc4c(c3)c(-c3ccc(N)cc3C)nn4C)ccc2C)cc1` [Compound 9], the values for the half-life at 2 μM in data set [1] (setting [24]) and in data set [2] (setting [25]) were 1.53 h and 2.5 h, respectively. The mouse microsomal stability entry in data set [1] was “greater stability in mouse liver microsomes (MLMs) over other hits”. Moreover, the human microsomal stability result in data set [2] (result in words) is recorded as “high metabolic stability”. Besides, the BROMOscan bromodomain profile result in the data set on various bromodomains is given as “very weak binding to two bromodomains outside of the BET subfamily”.

Consider `CC(=O)Nc1cc(NC(=O)c2ccc3c(c2)c(-c2ccc(N)cc2C)nn3C)ccc1C` [Compound 20], for which the concentration for half-maximal inhibition (IC50) against BRDT-BD2 [3] is 8 nM; on BRDT-BD1 [4] it was > 10000 nM and 15800 nM; at BRD4-BD2 [5], 12 nM; on BRD4-BD1 [6], 10400 nM; on BRDT-BD1 [11] (setting [26]), 15800 nM; on BRD4-BD1 [12] (setting [26]), 10400 nM. The IC50 was 12 nM at BRD4-BD2 [17] (setting [27]) and 8 nM on BRDT-BD2 [18] (setting [27]). Moreover, the Kd on BRD2-BD2 [7] is 7.8 nM; on BRD3-BD2 [8], 2 nM; on BRD4-BD2 [9], 1.6 nM; at BRDT-BD2 [10], 1.3 nM; on BRD2-BD2 [13], 7.8 nM; on BRD3-BD2 [14], 2 nM. Also, the Kd came out at 1.6 nM at BRD4-BD2 [15] and 1.3 nM on BRDT-BD2 [16] (BromoKdELECT dose-response, read-out: Binding Constants (Kd), nM BRDT-BD2). In [1] (setting [24]), the “t1/2, min MLM” value was 1.2 h. For the same compound, in data set [2] (setting [25]), the “t1/2, min HLM” value was 6.17 h. In the data set on various bromodomains, the BROMOscan bromodomain profile entry was “potent and selective binding to only the second bromodomains within the BET subfamily”. Moreover, at BRDT-BD2 [16] (BromoKdELECT dose-response curves), the “more potent than JQ1 at binding BRDT-BD2” value is given as “more than 20 fold”. For the same compound, the “BRD4-BD2 vs. BRD4-BD1 (BRD4-BD2 selectivity)” value on BRD4-BD2 [17] turned out to be 860. Moreover, the “BRDT-BD2 vs. BRDT-BD1 (BRDT-BD2 selectivity)” value on BRDT-BD2 [18] is recorded as 2,000. Moreover, the “BRDT-BD2 activity / affinity” value on BRDT-BD2 [18] (AlphaScreen) is “no loss in activity”. Besides, at BRDT-BD2 [18] (setting [28]), the “BRDT-BD2 vs. BRD4-BD2” value is recorded as 1.5.

With `CNC(=O)c1cc(NC(=O)c2ccc3c(c2)c(-c2ccc(N)cc2C)nn3C)ccc1C` [Compound 22], the IC50 on BRDT-BD2 [3] was 18 nM; on BRDT-BD1 [4], > 10000 nM and 10700 nM; at BRD4-BD2 [5] it was 20 nM; against BRD4-BD1 [6] it was 10900 nM; on BRDT-BD1 [11], 10700 nM; on BRD4-BD1 [12], 10900 nM. In addition, the IC50 was determined as 20 nM at BRD4-BD2 [17] and 18 nM on BRDT-BD2 [18]. Moreover, the half-life at 2 μM in data set [1] (setting [24]) was 2.5 h; in data set [2] (setting [25]), 7.67 h. Besides, in [1], the mouse microsomal stability entry is reported as “high mouse microsomal stability”. Moreover, on BRD4-BD2 [17] (setting [28]), the “BRD4-BD2 vs. BRD4-BD1 (BRD4-BD2 selectivity)” value was found to be 540. For the same compound, the “BRDT-BD2 activity / affinity” value at BRDT-BD2 [18] (AlphaScreen) was “minimal effects on potency”. The “BRDT-BD2 vs. BRD4-BD2” value on BRDT-BD2 [18] (setting [28]) was found to be 1.1. On BRDT-BD2 [18] (setting [28]), the “BRDT-BD2 vs. BRDT-BD1 (BRDT-BD2 selectivity)” value is recorded as 590.

With `CC(=O)Nc1c(F)cc(C(=O)N[C@H]2CC[C@H](O)CC2)cc1O[C@@H](C)c1ccccc1` [GSK046], the “selectivity over BD1” value in the data set with BD2 is > 300 fold.

In the case of `Cc1sc2c(c1C)C(c1ccc(Cl)cc1)=N[C@@H](CC(=O)OC(C)(C)C)c1nnc(C)n1-2` [JQ1, reference compound], the thermal shift (ΔTm) at 25 µM was found to be 3.48 °C with BRDT-BD1 [19], 10.3 °C in the data set with BRDT-BD2 [20], 7.84 °C in the data set with BRD4-BD1 [21] and 7.43 °C in the data set on BRD4-BD2 [22]. The half-life at 2 μM is 0.25 h in data set [1] (setting [24]) and 0.1 h in data set [2] (setting [25]). In addition, the “bioavailable across the blood-testis boundary” value in data set [23] is on record as 100%. The “BRDT-BD2 vs. BRD4-BD2” value on BRDT-BD2 [18] (setting [28]) amounted to 0.4.

The term IC50 denotes the point on the concentration scale where inhibition reaches its midpoint. Low readings indicate greater potency in that assay, high ones weaker potency in that assay. The term Kd denotes a measure of binding affinity in units of concentration. Broadly, the ΔTm is the shift of the melting midpoint relative to a reference.

The values are drawn from paper PMC7936271, “Discovery and characterization of bromodomain 2–specific inhibitors of BRDT” (Proceedings of the National Academy of Sciences of the …, 2021).
